{
  "source": "patent US20250049926A1",
  "about": "“PHARMACEUTICAL COMPOSITIONS COMPRISING MODIFIED BETACYCLODEXTRINS” (priority 2021, published 2025)",
  "test": "Solubility measurement of saturated solutions by HPLC at room temperature (0 h and 24 h)",
  "format": "physicochemical",
  "conditions": "for solubility at 24 h / solubility at 0 h: thermodynamic from solid",
  "description": "The vial contents are prepared starting with 2.5 mg of the compound of formula (I). The primary excipient is added followed by any further excipient and then the buffered water to a total volume of 500 μL. All components are mixed in a vortex mixer for ca. 5 minutes. If everything is dissolved an additional 2.5 mg of the compound of formula (I) is added and vortexed again for ca. 5 minutes. This is repeated until a saturated solution (suspension) is obtained.\nThe solubility in vial 1 is measured immediately as described below.\nTo measure solubility 400 μl of the suspension are taken and placed in a centrifugation device above a 0.2 μm filter. Centrifugation is performed at 14,000 rpm for 10 minutes and if necessary repeated for additional 10 minutes. The filter is removed from the vial and 100 μL is taken and diluted with 400 μL high-performance liquid chromatography (HPLC) diluent solution (see below) or diluted with 900 μL HPLC diluent solution in the event 5 mg or more of the compound of formula (I) was used. The pH of the solution is measured. A further 100 μL of the vial solution is taken and diluted with 400 μL of HPLC diluent solution or diluted with 900 μL HPLC diluent solution in the event 5 mg or more of the compound of formula (I) was used. The assay of the solution versus control stock solution is measured by HPLC and the solubility is calculated as described below. The HPLC diluent solution is 0.1% trifluoroacetic acid (TFA) in acetonitrile (ACN) and water (1:1 v/v).\nAll solubility tests are performed at room temperature.\nThe HPLC method for assessing solubility is performed as follows:\nThe solubility of the compound of formula (I) is calculated according to the following formula:\n[formula] • Solubility=solubility of compound of formula (I) (mg/mL) • A=peak area of the compound of the sample tested • a=value of constant “a” in Linear regression equation y=ax+b • b=value of constant “b” in Linear regression equation y=ax+b • n=dilution time • Formulations for stability assessment are prepared as follows: […]",
  "key": {"[1]": {"conditions": "buffered water with excipients, pH 7, aqueous with cosolvent or surfactant or cyclodextrin, CBS 30 mM pH 7.0, NaCl 3 mg/mL, SBE-beta-CD 40 mg/mL, pH exp 7.0"}},
  "data": [
    {"smiles": "COc1cc(N2CCNCC2)ccc1Nc1ncc2c(n1)-n1ccc(C(=O)Nc3c(C)cccc3C)c1CC2", "note": "[compound of formula (I)]", "values": [
      {"measurement": "solubility at 24 h", "setting": "buffered water with excipients, pH 4, aqueous with cosolvent or surfactant or cyclodextrin, CBS 30 mM pH 4.0, NaCl 6 mg/mL, SBE-beta-CD 40 mg/mL + Propylene glycol 5 mg/mL, pH exp 4.3", "result": 3820, "unit": "µg/mL"},
      {"measurement": "solubility at 0 h", "setting": "buffered water with excipients, pH 4, aqueous with cosolvent or surfactant or cyclodextrin, CBS 30 mM pH 4.0, NaCl 6 mg/mL, SBE-beta-CD 40 mg/mL + Propylene glycol 10 mg/mL, pH exp 4.1", "result": 2420, "unit": "µg/mL"},
      {"measurement": "solubility at 24 h", "setting": "buffered water with excipients, pH 4, aqueous with cosolvent or surfactant or cyclodextrin, CBS 30 mM pH 4.0, NaCl 6 mg/mL, SBE-beta-CD 40 mg/mL + Propylene glycol 10 mg/mL, pH exp 4.2", "result": 3650, "unit": "µg/mL"},
      {"measurement": "solubility at 0 h", "setting": "buffered water with excipients, pH 4, aqueous with cosolvent or surfactant or cyclodextrin, CBS 30 mM pH 4.0, NaCl 6 mg/mL, SBE-beta-CD 40 mg/mL + Propylene glycol 20 mg/mL, pH exp 4.1", "result": 2310, "unit": "µg/mL"},
      {"measurement": "solubility at 24 h", "setting": "buffered water with excipients, pH 4, aqueous with cosolvent or surfactant or cyclodextrin, CBS 30 mM pH 4.0, NaCl 6 mg/mL, SBE-beta-CD 40 mg/mL + Propylene glycol 20 mg/mL, pH exp 4.2", "result": 3440, "unit": "µg/mL"},
      {"measurement": "solubility at 0 h", "setting": "buffered water with excipients, pH 4, aqueous with cosolvent or surfactant or cyclodextrin, CBS 30 mM pH 4.0, NaCl 6 mg/mL, SBE-beta-CD 40 mg/mL + Propylene glycol 30 mg/mL, pH exp 4.1", "result": 2150, "unit": "µg/mL"},
      {"measurement": "solubility at 24 h", "setting": "buffered water with excipients, pH 4, aqueous with cosolvent or surfactant or cyclodextrin, CBS 30 mM pH 4.0, NaCl 6 mg/mL, SBE-beta-CD 40 mg/mL + Propylene glycol 30 mg/mL, pH exp 4.2", "result": 3350, "unit": "µg/mL"},
      {"measurement": "solubility at 0 h", "setting": "buffered water with excipients, pH 4, aqueous with cosolvent or surfactant or cyclodextrin, CBS 30 mM pH 4.0, SBE-beta-CD 54 mg/mL + Ethanol 16 mg/mL, pH exp 4.1", "result": 2490, "unit": "µg/mL"},
      {"measurement": "solubility at 24 h", "setting": "buffered water with excipients, pH 4, aqueous with cosolvent or surfactant or cyclodextrin, CBS 30 mM pH 4.0, SBE-beta-CD 54 mg/mL + Ethanol 16 mg/mL, pH exp 4.3", "result": 3850, "unit": "µg/mL"},
      {"measurement": "solubility at 0 h", "setting": "buffered water with excipients, pH 4, aqueous with cosolvent or surfactant or cyclodextrin, CBS 30 mM pH 4.0, SBE-beta-CD 54 mg/mL + PEG 300 56 mg/mL, pH exp 4.2", "result": 2890, "unit": "µg/mL"},
      {"measurement": "solubility at 24 h", "setting": "buffered water with excipients, pH 4, aqueous with cosolvent or surfactant or cyclodextrin, CBS 30 mM pH 4.0, SBE-beta-CD 54 mg/mL + PEG 300 56 mg/mL, pH exp 4.3", "result": 4030, "unit": "µg/mL"},
      {"measurement": "solubility at 0 h", "setting": "buffered water with excipients, pH 4, aqueous with cosolvent or surfactant or cyclodextrin, CBS 30 mM pH 4.0, SBE-beta-CD 56 mg/mL + PEG 400 22 mg/mL, pH exp 4.2", "result": 2810, "unit": "µg/mL"},
      {"measurement": "solubility at 24 h", "setting": "buffered water with excipients, pH 4, aqueous with cosolvent or surfactant or cyclodextrin, CBS 30 mM pH 4.0, SBE-beta-CD 56 mg/mL + PEG 400 22 mg/mL, pH exp 4.3", "result": 4060, "unit": "µg/mL"},
      {"measurement": "solubility at 0 h", "setting": "buffered water with excipients, pH 4, aqueous with cosolvent or surfactant or cyclodextrin, GBS (gluconate) 30 mM pH 4.0, NaCl 3 mg/mL, SBE-beta-CD 40 mg/mL, pH exp 4.1", "result": 2590, "unit": "µg/mL"},
      {"measurement": "solubility at 24 h", "setting": "buffered water with excipients, pH 4, aqueous with cosolvent or surfactant or cyclodextrin, GBS (gluconate) 30 mM pH 4.0, NaCl 3 mg/mL, SBE-beta-CD 40 mg/mL, pH exp 4.5", "result": 3940, "unit": "µg/mL"},
      {"measurement": "solubility at 0 h", "setting": "buffered water with excipients, pH 4, aqueous with cosolvent or surfactant or cyclodextrin, LBS (lactate) 30 mM pH 4.0, NaCl 3 mg/mL, SBE-beta-CD 40 mg/mL, pH exp 4.1", "result": 2690, "unit": "µg/mL"},
      {"measurement": "solubility at 24 h", "setting": "buffered water with excipients, pH 4, aqueous with cosolvent or surfactant or cyclodextrin, LBS (lactate) 30 mM pH 4.0, NaCl 3 mg/mL, SBE-beta-CD 40 mg/mL, pH exp 4.3", "result": 3980, "unit": "µg/mL"},
      {"measurement": "solubility at 24 h", "setting": "buffered water with excipients, pH 5.5, aqueous with cosolvent or surfactant or cyclodextrin, CBS 30 mM pH 5.5, NaCl 3 mg/mL, SBE-beta-CD 40 mg/mL, pH exp 5.7", "result": 3100, "unit": "µg/mL"},
      {"measurement": "solubility at 0 h", "setting": "[1]", "result": 2230, "unit": "µg/mL"},
      {"measurement": "solubility at 24 h", "setting": "[1]", "result": 2230, "unit": "µg/mL"},
      {"measurement": "solubility at 0 h", "setting": "buffered water without excipient (saturated solution), pH 4, aqueous buffer, CBS 30 mM pH 4.0, no excipient, pH exp 4.0", "result": 160, "unit": "µg/mL"},
      {"measurement": "solubility at 24 h", "setting": "buffered water without excipient (saturated solution), pH 4, aqueous buffer, CBS 30 mM pH 4.0, no excipient, pH exp 4.2", "result": 120, "unit": "µg/mL"},
      {"measurement": "effect of buffer on solubility with SBE-beta-CD", "setting": "citrate acid, acetic acid, gluconic acid, lactic acid and aspartic acid buffer", "result": "approximately the same"},
      {"measurement": "solubility (in words)", "setting": "other solubilizers at concentrations suitable for intravenous use, including hydroxypropyl beta-cyclodextrin", "result": "Low solubility"},
      {"measurement": "effect of additional excipient on solubility with SBE-beta-CD", "setting": "saline", "result": "very small impact on solubility"},
      {"measurement": "solubility (in words)", "setting": "with SBE-beta-CD at concentrations of solubilizer suitable for intravenous use", "result": "High solubility"},
      {"measurement": "solubility (in words)", "setting": "with SBE-beta-CD, at higher pH", "result": "lower solubility"},
      {"measurement": "solubility (in words)", "setting": "with SBE-beta-CD, between pH 4 to pH 5.5", "result": "High solubility"}
    ]}
  ]
}
